Where “and” joins values, the source holds several entries; their conditions need not be identical. Identical values can stand only once. Like-named read-outs stand apart in the source and are kept apart here.
Columns and labels:
[1] = test system: IL-6 induced Phospho-STAT3 (Tyr705) in TF-1 cells; assay: In vitro cellular pSTAT3 assay, IL-6 stimulated TF-1 cells; type: cell-based; conditions: Homo sapiens
[2] = Chrom logD pH 7.4; type: physicochemical
[3] = SF logD; type: physicochemical
[4] = Human skin ex vivo: flux through skin and dermis concentration (Franz cells); type: in vitro ADME; conditions: PG/H2O cream 1 mg/mL
[5] = Kinetic aqueous solubility; type: physicochemical
[6] = Thermodynamic solubility PG_H2O pH 6 2/8; type: physicochemical; conditions: PG/H2O 2/8, pH 6
[7] = Protein binding analysis (RED), minipig plasma; type: in vitro ADME; conditions: male, Gottingen, pH 7.4, RED 4 h, read-out: minipig FU
Experimental: The protein binding was assessed in plasma of Human, male balb-c mice, male Wistar Han rat, male Gottingen minipig by rapid equilibrium dialysis (RED) devices. After the plasma and buffer phosphate 50 mM pH7.4 were equilibrated at 37° C., the compound was added to plasma to reach a final concentration of 5 μM. An aliquot of plasma was withdrawn immediately. Equilibration under mild agitation was continued for 4 h. The plasma and buffer were sampled and samples were quenched with 4 volumes of acetonitrile and centrifuged. Supernatant was quantified in HPLC/MS/MS to calculate the recovery and the percentage of compound dissolved in the buffer (unbound) and bound to plasma proteins.

[8] = Intrinsic clearance in human hepatocytes; type: in vitro ADME; conditions: 2.5 μM
Experimental: (§1) The intrinsic clearance was assessed in cryopreserved Hepatocytes obtained by Human livers donors of mix gender pooled together, male balb-c mouse, male Wistar Han rats and male Göttingen minipig, by looking at the parent compound disappearance. The incubations were performed using a final concentration of viable cells of 1 million/ml (viability above 70%) and test item of 2.5 μM. Incubations were followed up to 2 h. Aliquotes were withdrawn at different time points and reaction quenched with acetonitrile. After centrifugation the supernatant was analyzed by HPLC/MS to quantify the remaining amount of parent in comparison with time 0. The clearance was calculated by fitting the log of the percentage remaining with Graphpad Prism ver.7.

[9] = Intrinsic clearance in rat hepatocytes; type: in vitro ADME, male Wistar Han rats; conditions: 2.5 μM
Experimental: as §1

[10] = Intrinsic clearance in mouse hepatocytes; type: in vitro ADME, male balb-c mouse; conditions: 2.5 μM
Experimental: as §1

[11] = Intrinsic clearance in minipig hepatocytes; type: in vitro ADME, male Göttingen minipig; conditions: 2.5 μM
Experimental: as §1

[12] = In vivo pharmacokinetic analysis in minipig, iv; design: species or system male Göttingen minipigs; conditions: iv 1 mg/kg; for clearance: male, Göttingen, minipig, whole blood, blood, read-out: iv PK minipig: Cl
Experimental: Three male Göttingen minipigs. Compound was administered intravenously to fed animals at a target dose of 1 mg/kg, dose volume 1 mL/kg, in DMSO: hydroxypropyl-β-cyclodextrin 20% in phosphate buffer 60 mM pH 7 (5:95). Blood samples were collected at various time points. Blood samples were then assayed using a method based upon protein precipitation with acetonitrile followed by LC/MS/MS analysis. Non-compartmental methods were used for pharmacokinetic analysis of blood concentration versus time data.

[13] = test system: panel of 403 kinases; assay: Kinase selectivity scores S35 / S1 @ 10 μM (403 kinases); type: binding
[14] = test system: Salmonella typhimurium TA98 and TA100; assay: Mini Ames assay (TA98 and TA100); type: cell-based; conditions: for AMES: TA98 and TA100, with and without S9; for increase in the mean number of revertants: TA98 and TA 100 with or without metabolic activation
Source text: The Ames test in micro-method (in 6-well plates=mini Ames) follows the general principles of the standard Ames's technique. The Ames test used strains of bacteria Salmonella typhimurium that carry mutations in the genes involved in histidine synthesis. These strains are auxotrophic mutants, they require histidine for growth but cannot produce it. The assay was used to observe the ability of the test item to induce reverse mutations allowing the bacteria to grow in a histidine-free medium. The number of bacteria that revert and acquire the wild-type ability to grow in the absence of histidine can be estimated by counting the colonies that develop upon incubation. The use of different strains allows the identification of different mechanisms of gene mutation (TA98 for detection of frameshift mutations and TA100 for detection of base pair substitutions).
In a number of cases, the test item itself is not directly mutagenic but its metabolic derivatives are.
A toxicity assessment was performed on complete nutriment agar plate (with histidine) to define the highest concentration to be used in the genotoxicity assay. Solutions were prepared in 100% DMSO. The first concentration analyzed in the well (6-well plate) was 500 μg per plate followed by 7 serial dilutions (2 times factor of dilution). Each concentration was tested in triplicate on each strain and for each condition of treatment. The viability of the positive and negative controls was analyzed for each strain, in the presence or absence of metabolic activation system, and were compared with historical data to validate the study. If no bacterial toxicity occurred, the highest concentration tested for genotoxicity was […]. If toxicity occurred, a viability above than 70% defined the highest concentration tested.
The genotoxicity assessment was performed on minimal agar plate (without histidine) following the same dilution procedure as for the cytotoxicity assessment. DMSO and phosphate buffer controls were used as negative controls. 2-Nitrofluorene (2NF), 2-Aminoanthracene (2AA) and 4-Nitro-1.2 phenylenediamine (DANB) were selected as positive controls.
Test items, positive and negative controls were incubated with the 2 bacterial strains. After 48 h incubation at 37° C. with and without metabolic activation (S9), the prototrophic mutant colonies that had grown on the plates were counted. The results were expressed as the mean number of revertants for each condition tested (3 replicates each) and for each concentration of the test item and controls. Induction ration, corresponding to the ratio of revertants in presence of test item versus spontaneous revertant, was determined for each concentration.

[15] = test system: 3T3 murine fibroblasts; assay: Phototoxicity, neutral red uptake; type: cell-based; conditions: 3T3 fibroblasts, 7 J/cm2 UVA/UVB
Experimental: Phototoxicity was evaluated in 3T3 murine fibroblasts. Cells were incubated with different concentrations of test compounds. One plate was then exposed to a dose of 7 J/cm2 (UVA/UVB mimicking usual solar exposure) whereas the other plate was kept in the dark. The treatment medium was then replaced with culture medium and after 24 h cell viability was determined by Neutral red uptake. Concentration leading to 50% decrease of viability was calculated in the absence and in the presence of irradiation. The PIF (photo irritation factor) ratio was then calculated: […]).

[16] = test system: 44 targets (binding and enzyme/uptake assays); assay: CEREP Safety Screen-44
Experimental: An in vitro pharmacology assay was conducted to assess the capability of the compounds to interact with different pharmacological targets when tested at 10 μM in different binding and enzyme/uptake assays. The included targets are indicative of potential effects in major organs and drug-drug interactions.
Compound binding was calculated as a % inhibition of the binding of a radioactively labelled ligand specific for each target. […] […].

[17] = TF-1, cellular assay IL6, read-out: Free IC50
[18] = TF-1 cells, IL-6 100 ng/ml, pSTAT3, read-out: Cellular Assay: IC50 IL6

SMILES	IC50 [1, 17] [µM]	IC50 [1, 18] [µM]	chromatographic logD [2]	logD [3]	dermis concentration [4] [µM]	measured flux 6-24 hr [4] [ng/cm^2/hr]	Kinetic aq sol [5] [µM]	Thermodynamic sol PG_H2O pH 6 2/8 [6]	fraction unbound at 4 h, 5 μM [7]	Intr. Clear. h heps [8] [microL/min/10 6 cells]	Intr. Clear. rheps [9] [microL/min/10 6 cells]	Intr. Clear. mheps [10] [microL/min/10 6 cells]	Intr. Clear. minipig heps [11] [microL/min/10 6 cells]	iv PK minipig: Cl (value in brackets, %) [12] [%]	clearance [12] [mL/min/kg]	Selectivity @ 10 μM: number of kinases out of 403 [13]	AMES [14]	increase in the mean number of revertants [14]	Phototox [15]	also measured
CC1(C)CCN(C(=O)C[C@H]2C[C@@H](Nc3c(C#N)cnc4[nH]ccc34)C2)CC1 [Compound A, 4-(((cis)-3-(2-(4,4-dimethylpiperidin-1-yl)-2-oxoethyl)cyclobutyl)amino)-1H-pyrrolo[2,3-b]pyridine-5-carbonitrile]	0.367	0.011	2.7	3.7	0.25	2.5	15	454 microM and 0.17 mg/mL	0.1	264	> 152	215	> 300	111	31	24/403	Neg/Neg	did not induce a biologically significant increase	Neg/Neg	Safety panel (Cerep): 44 targets % inh @ 10 microM, Nb of targets > 50% inh ([16]; 10 microM): 1/44
CC1CCN(C(=O)C[C@H]2C[C@@H](Nc3c(C#N)cnc4[nH]ccc34)C2)CC1 [Compound B, 4-(((cis)-3-(2-(4-Methylpiperidin-1-yl)-2-oxoethyl)cyclobutyl)amino)-1H-pyrrolo[2,3-b]pyridine-5-carbonitrile]	0.275	0.011	2.2	3.1	0.9	2.4	35	223 microM and 0.08 mg/mL	0.083	147	134	> 300	248	97	27	19/403	Neg/Neg	did not induce a biologically significant increase	Neg/Neg	Safety panel (Cerep): 44 targets % inh @ 10 microM, Nb of targets > 50% inh ([16]; 10 μM): 0/44

Reference: patent US12606559B2, “JAK inhibitor compounds, methods for synthesizing same and use thereof” (GALDERMA HOLDING SA, priority 2020, dated 2026)
